From ChEMBL document CHEMBL1148685, “3,4-Dihydro-1H-[1,3]oxazino[4,5-c]acridines as a new family of cytotoxic drugs” (Bioorg Med Chem Lett, 2006) come the findings set out here.

The structures appear in SMILES notation. Calls of active or inactive are those of the source. The rule behind the calls is not given here.

What all share (type): functional, cell-based
Details in all cases: Homo sapiens

The subject of assay [1] is HT-29. Kind of assay: Cytotoxicity against HT29 cell line.
Assay [2] has as its system HT-29. Kind of assay: Cytotoxicity against HT29 cells in hypoxic condition after 5 hrs.
For assay [3], the system named is HT-29. Nature of the assay: Cytotoxicity against HT29 cells in presence of Escherichia coli nitroreductase.

Broadly, the IC50 is the concentration at which inhibition is half-maximal. In assay [1], `COc1cccc2c1C(=O)c1c(O)c3c(c(O)c1C2=O)C[C@@](O)(C(=O)CO)C[C@@H]3O[C@H]1C[C@H](N)[C@H](O)[C@H](C)O1` [DOXORUBICIN] showed an IC50 of 2370 nM.

As for `O=[N+]([O-])c1ccc(C2Nc3ccc4cc5ccccc5nc4c3CO2)cc1` (stereo not given), the result in assay [2] was inactive. The IC50 in assay [3] was 200 nM; in assay [1], 2300 nM. Turning to `c1ccc(COCC2Nc3ccc4cc5ccccc5nc4c3CO2)cc1` (stereo not given), the IC50 in assay [1] was 4000 nM.

Compound `BrCC1Nc2ccc3cc4ccccc4nc3c2CO1` (stereo not given) returned an IC50 in assay [1] of 1250 nM. On the same count and under the same terms, then `CC1Nc2ccc3cc4ccccc4nc3c2CO1` (stereo not given), with 600 nM; and `ClCC1Nc2ccc3cc4ccccc4nc3c2CO1` (stereo not given), with 1250 nM; and `c1ccc2nc3c4c(ccc3cc2c1)NCOC4`, with 2250 nM. Take `c1ccc(C2Nc3ccc4cc5ccccc5nc4c3CO2)cc1` (stereo not given): half-maximal inhibition in assay [1] (IC50) required 400 nM.
